Experimental data from patent publication US12435046B2, “Alkynyl quinazoline compounds” (Black Diamond Therapeutics, Inc., priority 2019, dated 2025).

Columns and labels:
Assay type in all cases: cell-based
Details in all cases: Table A; BaF3 cells, 3 days
EGFR wt = molecular target: T1, EGFR wt (Homo sapiens, UniProt P00533); assay: BaF3 cell proliferation assay (CellTiterGlo), EGFR wt
T1 construct: expressed in transfected cells; host or cells: BaF3 (murine pro-B) cells, retroviral transduction with pMXs-IRES-Blasticidin
T1 sequence (P00533 25-1210): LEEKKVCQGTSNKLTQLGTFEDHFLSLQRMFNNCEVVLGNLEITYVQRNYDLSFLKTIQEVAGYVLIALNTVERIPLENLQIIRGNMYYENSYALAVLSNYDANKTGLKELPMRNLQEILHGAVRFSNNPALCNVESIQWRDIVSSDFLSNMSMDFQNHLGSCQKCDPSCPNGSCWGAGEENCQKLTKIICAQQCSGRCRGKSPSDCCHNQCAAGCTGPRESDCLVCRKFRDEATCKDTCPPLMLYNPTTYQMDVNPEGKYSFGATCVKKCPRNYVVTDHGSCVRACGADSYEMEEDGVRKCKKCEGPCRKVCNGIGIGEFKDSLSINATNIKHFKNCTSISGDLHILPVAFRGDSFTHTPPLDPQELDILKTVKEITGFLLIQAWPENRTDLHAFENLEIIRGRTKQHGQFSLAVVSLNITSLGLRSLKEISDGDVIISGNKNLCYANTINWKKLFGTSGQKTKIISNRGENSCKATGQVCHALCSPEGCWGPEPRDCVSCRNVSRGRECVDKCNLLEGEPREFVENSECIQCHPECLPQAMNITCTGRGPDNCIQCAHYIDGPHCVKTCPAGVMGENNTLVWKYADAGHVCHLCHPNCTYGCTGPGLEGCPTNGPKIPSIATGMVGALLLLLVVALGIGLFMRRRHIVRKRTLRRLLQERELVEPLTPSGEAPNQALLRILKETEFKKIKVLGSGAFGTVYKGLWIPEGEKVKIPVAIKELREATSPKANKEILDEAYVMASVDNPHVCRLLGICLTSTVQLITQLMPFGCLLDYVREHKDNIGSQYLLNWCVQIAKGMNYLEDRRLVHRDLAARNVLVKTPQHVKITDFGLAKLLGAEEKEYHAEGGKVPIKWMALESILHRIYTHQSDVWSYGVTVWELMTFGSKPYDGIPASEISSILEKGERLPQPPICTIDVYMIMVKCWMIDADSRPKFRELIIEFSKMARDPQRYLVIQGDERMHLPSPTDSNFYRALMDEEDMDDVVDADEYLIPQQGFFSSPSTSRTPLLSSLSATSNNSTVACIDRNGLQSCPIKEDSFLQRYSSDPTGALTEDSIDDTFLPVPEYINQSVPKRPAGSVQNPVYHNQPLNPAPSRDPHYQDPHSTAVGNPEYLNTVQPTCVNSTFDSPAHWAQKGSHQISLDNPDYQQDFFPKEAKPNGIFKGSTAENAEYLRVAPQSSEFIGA
Method in brief: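 BaF3 cells engineered by retroviral transduction to express EGFR and selected for blasticidin resistance and IL-3 independent growth were suspended at 1.3E5 c/ml in RPMI with 10% heat inactivated FBS, 2% L-glutamine and 1% Pen/Strep. They were plated in triplicate in 96 well plates and exposed to vehicle or varying drug concentrations for 3 days. Viability was quantified by CellTiterGlo ATP luminescence, normalized to vehicle, and curves fitted in PRISM.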

EGFR V3 = molecular target: T2, EGFR V3 (Homo sapiens, UniProt P00533, DELINS30-297G); assay: BaF3 cell proliferation assay (CellTiterGlo), EGFR V3
T2 construct: expressed in transfected cells; host or cells: BaF3 (murine pro-B) cells, retroviral transduction with pMXs-IRES-Blasticidin
T2 sequence (P00533 with tags, fused parts or gaps DELINS30-297G): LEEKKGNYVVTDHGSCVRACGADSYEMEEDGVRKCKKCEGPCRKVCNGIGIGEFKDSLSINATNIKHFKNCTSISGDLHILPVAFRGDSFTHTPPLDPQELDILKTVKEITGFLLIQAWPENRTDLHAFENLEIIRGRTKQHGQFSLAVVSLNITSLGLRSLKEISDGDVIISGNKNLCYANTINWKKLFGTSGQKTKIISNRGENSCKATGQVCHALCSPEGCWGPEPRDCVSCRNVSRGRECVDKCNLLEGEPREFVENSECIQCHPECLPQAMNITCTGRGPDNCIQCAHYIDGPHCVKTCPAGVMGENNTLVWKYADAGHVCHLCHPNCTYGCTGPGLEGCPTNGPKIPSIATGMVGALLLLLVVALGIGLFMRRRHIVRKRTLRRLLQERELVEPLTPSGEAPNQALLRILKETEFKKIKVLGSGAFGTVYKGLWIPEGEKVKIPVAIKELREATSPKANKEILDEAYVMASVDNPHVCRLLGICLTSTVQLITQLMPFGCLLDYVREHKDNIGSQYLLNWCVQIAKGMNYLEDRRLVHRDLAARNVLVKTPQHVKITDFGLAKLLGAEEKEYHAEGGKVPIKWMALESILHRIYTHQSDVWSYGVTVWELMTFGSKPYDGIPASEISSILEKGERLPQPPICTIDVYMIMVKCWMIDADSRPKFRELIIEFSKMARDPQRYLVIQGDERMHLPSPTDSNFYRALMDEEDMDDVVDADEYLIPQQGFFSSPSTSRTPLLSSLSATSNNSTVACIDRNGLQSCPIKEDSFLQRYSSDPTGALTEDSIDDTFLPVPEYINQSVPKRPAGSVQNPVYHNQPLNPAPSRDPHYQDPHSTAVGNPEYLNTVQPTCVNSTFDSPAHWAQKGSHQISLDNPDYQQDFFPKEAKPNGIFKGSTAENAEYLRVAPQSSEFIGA
Method in brief: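 BaF3 cells made IL-3-independent by retroviral expression of each EGFR or HER2 mutant were treated in triplicate with compound for 72 h. Viability was read by CellTiterGlo ATP luminescence and normalised to vehicle, and EC50 was fitted from dose-response curves.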

EGFR SVD = molecular target: T3, EGFR SVD (Homo sapiens, UniProt P00533, INS770SVD); assay: BaF3 cell proliferation assay (CellTiterGlo), EGFR SVD
T3 construct: expressed in transfected cells; host or cells: BaF3 (murine pro-B) cells, retroviral transduction with pMXs-IRES-Blasticidin
Method: (§1) Retroviral Production: EGFR mutants were subcloned into pMXs-IRES-Blasticidin (RTV-016, Cell Biolabs, San Diego, CA). Retroviral expression vector retrovirus was produced by transient transfection of HEK 293T cells with the retroviral EGFR mutant expression vector pMXs-IRES-Blasticidin (RTV-016, Cell Biolabs), pCMV-Gag-Pol vector and pCMV-VSV-G-Envelope vector. Briefly, HEK 293T/17 cells were plated in 100 mm collagen coated plate (354450, Corning Life Sciences, Tewksbury, MA) (4×10^5 per plate) and incubated overnight. The next day, retroviral plasmids (3 ng of EGFR mutant, 1.0 ng of pCMV-Gag-Pol and 0.5 ng pCMV-VSV-G) were mixed in 500 n1 of Optimem (31985, Life Technologies). The mixture was incubated at room temperature for 5 min and then added to Optimem containing transfection reagent Lipofectamine (11668, Invitrogen) and incubated for 20 minutes. Mixture was then added dropwise to HEK 293T cells. The next day the medium was replaced with fresh culture medium and retrovirus was harvested @ 24 and 48 hrs.
(§2) Generation of EGFR mutant stable cell lines: BaF3 cells (1.5E5 cells) were infected with 1 ml of viral supernatant supplemented with 8 ng/ml polybrene by centrifuging for 30 min at 1000 rpm. Cells were placed in a 37° C. incubator overnight. Cells were then spun for 5 minutes to pellet the cells. Supernatant was removed and cells re-infected a fresh 1 ml of viral supernatant supplemented with 8 ng/ml polybrene by centrifuging for 30 min at 1000 rpm. Cells were placed in 37° C. incubator overnight. Cells were then maintained in RPMI containing 10% Heat Inactivated FBS, 2% L-glutamine containing 10 ng/ml IL-3. After 48 hours cells were selected for retroviral infection in 10 […] for one week. Blasticidin resistant populations were washed twice in phosphate buffered saline before plating in media lacking IL-3 to select for IL-3 independent growth.
(§3) Assay for cell proliferation: BaF3 cell lines were resuspended at 1.3E5 c/ml in RPMI containing 10% Heat Inactivated FBS, 2% L-glutamine and 1% Pen/Strep and dispensed in triplicate (17.5E4 c/well) into 96 well plates. To determine the effect of drug on cell proliferation, cells incubated for 3 days in the presence of vehicle control or test drug at varying concentrations. Inhibition of cell growth was determined by luminescent quantification of intracellular ATP content using CellTiterGlo (Promega), according to the protocol provided by the manufacturer. Comparison of cell number on day 0 versus 72 hours post drug treatment was used to plot dose-response curves. The number of viable cells was determined and normalized to vehicle-treated controls. Inhibition of proliferation, relative to vehicle-treated controls was expressed as a fraction of 1 and graphed using PRISM® software (Graphpad Software, San Diego, CA). EC50 values were determined with the same application.

EGFR NPH = molecular target: T4, EGFR NPH (Homo sapiens, UniProt P00533, INS773NPH); assay: BaF3 cell proliferation assay (CellTiterGlo), EGFR NPH
T4 construct: expressed in transfected cells; host or cells: BaF3 (murine pro-B) cells, retroviral transduction with pMXs-IRES-Blasticidin
Method: as §1, §2, §3

HER2 YVMA = molecular target: T5, HER2 YVMA (Homo sapiens, UniProt P04626, INS775YVMA); assay: BaF3 cell proliferation assay (CellTiterGlo), HER2 YVMA
T5 construct: expressed in transfected cells; host or cells: BaF3 (murine pro-B) cells
T5 sequence (P04626 with tags, fused parts or gaps INS775YVMA): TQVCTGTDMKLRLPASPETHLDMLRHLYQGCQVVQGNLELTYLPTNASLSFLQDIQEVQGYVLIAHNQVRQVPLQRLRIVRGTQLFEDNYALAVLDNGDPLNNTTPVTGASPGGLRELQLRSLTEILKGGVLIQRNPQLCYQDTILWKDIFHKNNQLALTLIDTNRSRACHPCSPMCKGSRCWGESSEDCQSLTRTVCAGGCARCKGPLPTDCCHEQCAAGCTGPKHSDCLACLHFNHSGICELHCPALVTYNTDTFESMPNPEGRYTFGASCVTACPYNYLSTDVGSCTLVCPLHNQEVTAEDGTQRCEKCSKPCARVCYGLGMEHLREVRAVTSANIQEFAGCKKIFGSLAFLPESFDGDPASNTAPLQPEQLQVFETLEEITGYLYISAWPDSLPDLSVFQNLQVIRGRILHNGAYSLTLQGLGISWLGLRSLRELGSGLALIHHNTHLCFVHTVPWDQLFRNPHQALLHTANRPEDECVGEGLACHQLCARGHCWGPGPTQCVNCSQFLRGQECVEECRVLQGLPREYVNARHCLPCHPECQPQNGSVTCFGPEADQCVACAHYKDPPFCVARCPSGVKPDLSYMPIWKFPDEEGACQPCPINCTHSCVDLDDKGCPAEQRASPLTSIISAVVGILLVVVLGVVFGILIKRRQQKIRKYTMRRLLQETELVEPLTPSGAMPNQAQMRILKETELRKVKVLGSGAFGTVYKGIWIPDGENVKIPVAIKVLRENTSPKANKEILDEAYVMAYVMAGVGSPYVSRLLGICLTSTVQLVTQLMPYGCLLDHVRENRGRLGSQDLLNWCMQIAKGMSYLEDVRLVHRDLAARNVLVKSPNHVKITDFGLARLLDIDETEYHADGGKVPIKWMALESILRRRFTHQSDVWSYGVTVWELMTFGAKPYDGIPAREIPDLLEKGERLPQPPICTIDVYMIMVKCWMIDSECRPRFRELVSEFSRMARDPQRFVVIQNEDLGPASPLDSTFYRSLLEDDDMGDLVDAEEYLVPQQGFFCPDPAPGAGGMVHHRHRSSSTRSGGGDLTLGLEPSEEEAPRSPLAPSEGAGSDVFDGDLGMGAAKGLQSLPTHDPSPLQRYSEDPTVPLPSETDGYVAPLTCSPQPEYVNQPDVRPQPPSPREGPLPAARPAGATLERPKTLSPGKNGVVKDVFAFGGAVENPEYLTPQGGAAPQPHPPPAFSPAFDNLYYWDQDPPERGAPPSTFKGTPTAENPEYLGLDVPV

HER2 S310F = molecular target: T6, HER2 S310F (Homo sapiens, UniProt P04626, S310F); assay: BaF3 cell proliferation assay (CellTiterGlo), HER2 S310F
T6 construct: expressed in transfected cells; host or cells: BaF3 (murine pro-B) cells
T6 sequence (P04626 23-1255 S310F): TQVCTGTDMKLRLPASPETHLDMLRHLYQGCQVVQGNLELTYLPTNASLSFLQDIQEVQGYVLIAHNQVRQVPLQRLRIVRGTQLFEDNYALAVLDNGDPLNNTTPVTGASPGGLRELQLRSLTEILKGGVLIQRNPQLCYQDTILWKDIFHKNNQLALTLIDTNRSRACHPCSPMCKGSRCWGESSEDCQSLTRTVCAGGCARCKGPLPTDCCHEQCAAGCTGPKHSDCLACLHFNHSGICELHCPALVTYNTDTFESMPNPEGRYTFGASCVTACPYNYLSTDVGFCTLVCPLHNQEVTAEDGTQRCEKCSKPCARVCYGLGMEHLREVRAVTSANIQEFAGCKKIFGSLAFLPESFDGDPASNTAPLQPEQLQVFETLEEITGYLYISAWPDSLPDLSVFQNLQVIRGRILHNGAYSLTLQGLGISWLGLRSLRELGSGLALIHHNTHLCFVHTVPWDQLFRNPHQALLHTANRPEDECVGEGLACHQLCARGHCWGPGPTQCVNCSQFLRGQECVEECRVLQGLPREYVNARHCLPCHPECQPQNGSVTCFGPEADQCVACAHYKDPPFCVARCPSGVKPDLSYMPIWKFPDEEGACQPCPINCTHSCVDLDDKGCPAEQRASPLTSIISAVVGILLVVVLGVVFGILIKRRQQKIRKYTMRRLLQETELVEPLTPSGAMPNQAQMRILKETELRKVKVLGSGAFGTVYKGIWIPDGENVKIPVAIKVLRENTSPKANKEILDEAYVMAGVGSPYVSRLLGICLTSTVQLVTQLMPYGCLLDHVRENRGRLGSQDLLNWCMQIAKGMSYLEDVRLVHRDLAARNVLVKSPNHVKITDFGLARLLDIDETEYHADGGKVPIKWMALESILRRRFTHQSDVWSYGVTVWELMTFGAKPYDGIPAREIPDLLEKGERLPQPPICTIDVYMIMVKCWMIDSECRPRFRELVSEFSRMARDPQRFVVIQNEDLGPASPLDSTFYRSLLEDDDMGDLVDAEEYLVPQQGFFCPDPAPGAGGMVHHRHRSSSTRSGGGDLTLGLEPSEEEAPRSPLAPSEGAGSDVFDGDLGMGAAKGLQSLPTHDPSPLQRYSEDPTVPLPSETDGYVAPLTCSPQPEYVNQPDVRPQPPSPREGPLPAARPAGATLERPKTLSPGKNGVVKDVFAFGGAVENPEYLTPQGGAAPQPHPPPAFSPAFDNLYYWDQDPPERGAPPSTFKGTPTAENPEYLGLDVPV

`C=CC(=O)Nc1cc2c(Nc3ccc(Oc4ccccc4)cc3)ncnc2cc1C#C[C@]12C[C@H]1CN(C)C2` [Compound 41, N-(7-(((1S,5R)-3-methyl-3-azabicyclo[3.1.0]hexan-1-yl)ethynyl)-4-((4-phenoxyphenyl)amino)quinazolin-6-yl)acrylamide] showed an IC50 (EGFR wt) of 0.1 to 0.5 µM, an IC50 (EGFR V3) of at most 0.05 µM and an IC50 (EGFR SVD) of 0.1 to 0.5 µM. The IC50 (EGFR NPH) was 0.1 to 0.5 µM and the IC50 (HER2 YVMA) was at most 0.05 µM.
In the case of `C=CC(=O)Nc1cc2c(Nc3ccc(OCc4ccccn4)c(Cl)c3)ncnc2cc1C#CC1(C)CCN(C)C1` (centres unmarked) [Compound 12, N-(4-((3-chloro-4-(pyridin-2-ylmethoxy)phenyl)amino)-7-((1,3-dimethylpyrrolidin-3-yl)ethynyl)quinazolin-6-yl)acrylamide], the IC50 (EGFR wt) is reported as over 0.5 µM, the IC50 (EGFR V3) is reported as at most 0.05 µM and the IC50 (EGFR SVD) is reported as at most 0.05 µM. For the same molecule, the IC50 (EGFR NPH) was at most 0.05 µM, the IC50 (HER2 S310F) was at most 0.05 µM and the IC50 (HER2 YVMA) was at most 0.05 µM.
`C=CC(=O)Nc1cc2c(Nc3cccc(Cl)c3F)ncnc2cc1C#C[C@@]12C[C@@H]1CN(C1COC1)C2` [Compound 50, N-(4-((3-chloro-2-fluorophenyl)amino)-7-(((1R,5S)-3-(oxetan-3-yl)-3-azabicyclo[3.1.0]hexan-1-yl)ethynyl)quinazolin-6-yl)acrylamide] showed an IC50 (EGFR wt) of 0.05 to 0.1 µM, an IC50 (EGFR V3) of at most 0.05 µM and an IC50 (HER2 S310F) of 0.05 to 0.1 µM. The IC50 (HER2 YVMA) was 0.1 to 0.5 µM.
For `C=CC(=O)Nc1cc2c(Nc3cccc(Cl)c3F)ncnc2cc1C#C[C@@]1(C)CCCN1C` [Compound 6, (R)—N-(4-((3-chloro-2-fluorophenyl)amino)-7-((1,2-dimethylpyrrolidin-2-yl)-ethynyl)quinazolin-6-yl)acrylamide], the IC50 (EGFR wt) was over 0.5 µM, the IC50 (EGFR V3) was 0.05 to 0.1 µM and the IC50 (HER2 S310F) was 0.1 to 0.5 µM. For the same molecule, the IC50 (HER2 YVMA) was over 0.5 µM.
Molecule `C=CC(=O)Nc1cc2c(Nc3cccc(Cl)c3F)ncnc2cc1C#CC1(C)CCN(C)CC1` [Compound 4, N-(4-((3-chloro-2-fluorophenyl)amino)-7-((1,4-dimethylpiperidin-4-yl)ethynyl)quinazolin-6-yl)acrylamide] has an IC50 (EGFR wt) of 0.05 to 0.1 µM, an IC50 (EGFR V3) of at most 0.05 µM and an IC50 (HER2 S310F) of 0.1 to 0.5 µM. The IC50 (HER2 YVMA) was 0.1 to 0.5 µM.
In the case of `C=CC(=O)Nc1cc2c(Nc3cccc(Cl)c3F)ncnc2cc1C#CC1(OC)CCN(C)C1` (centres unmarked) [Compound 52, N-(4-((3-chloro-2-fluorophenyl)amino)-7-((3-methoxy-1-methylpyrrolidin-3-yl)ethynyl)quinazolin-6-yl)acrylamide], the IC50 (EGFR wt) is reported as 0.1 to 0.5 µM, the IC50 (EGFR V3) is reported as at most 0.05 µM and the IC50 (HER2 S310F) is reported as 0.05 to 0.1 µM. For the same molecule, the IC50 (HER2 YVMA) was 0.1 to 0.5 µM.
`C=CC(=O)Nc1cc2c(Nc3ccc(OCc4ccccn4)c(Cl)c3)ncnc2cc1C#C[C@@]1(C)CCCN1C` [Compound 16, (R)—N-(4-((3-chloro-4-(pyridin-2-ylmethoxy)phenyl)amino)-7-((1,2-dimethylpyrrolidin-2-yl)ethynyl)quinazolin-6-yl)acrylamide] gave an IC50 (EGFR wt) of over 0.5 µM, an IC50 (EGFR V3) of 0.05 to 0.1 µM and an IC50 (HER2 S310F) of at most 0.05 µM. The IC50 (HER2 YVMA) was 0.1 to 0.5 µM.
For `C=CC(=O)Nc1cc2c(Nc3cccc(Cl)c3F)ncnc2cc1C#C[C@@]12C[C@@H]1CN(C)C2` [Compound 51, N-(4-((3-chloro-2-fluorophenyl)amino)-7-(((1R,5S)-3-methyl-3-azabicyclo[3.1.0]hexan-1-yl)ethynyl)quinazolin-6-yl)acrylamide], the IC50 (EGFR wt) was 0.05 to 0.1 µM, the IC50 (EGFR V3) was at most 0.05 µM and the IC50 (HER2 S310F) was at most 0.05 µM. For the same molecule, the IC50 (HER2 YVMA) was 0.1 to 0.5 µM.
With `C=CC(=O)Nc1cc2c(Nc3ccc(OCc4ccccn4)c(Cl)c3)ncnc2cc1C#CC12CCC(CC1)N2C` [Compound 71, N-(4-((3-chloro-4-(pyridin-2-ylmethoxy)phenyl)amino)-7-((7-methyl-7-azabicyclo[2.2.1]heptan-1-yl)ethynyl)quinazolin-6-yl)acrylamide] the IC50 (EGFR wt) was over 0.5 µM, the IC50 (EGFR V3) was at most 0.05 µM and the IC50 (HER2 S310F) was at most 0.05 µM. It also gave an IC50 (HER2 YVMA) of 0.1 to 0.5 µM.
With `C=CC(=O)Nc1cc2c(Nc3ccc(OCc4ccccn4)c(Cl)c3)ncnc2cc1C#C[C@]1(C)CCN(C)C1` [Compound 13, (S)—N-(4-((3-chloro-4-(pyridin-2-ylmethoxy)phenyl)amino)-7-((1,3-dimethylpyrrolidin-3-yl)ethynyl)quinazolin-6-yl)acrylamide] the IC50 (EGFR wt) was 0.1 to 0.5 µM, the IC50 (EGFR V3) was at most 0.05 µM and the IC50 (HER2 S310F) was at most 0.05 µM. The IC50 (HER2 YVMA) was at most 0.05 µM.
`C=CC(=O)Nc1cc2c(Nc3cccc(Cl)c3F)ncnc2cc1C#CC1(C)CCCN(C)C1` (centres unmarked) [Compound 66, N-(4-((3-chloro-2-fluorophenyl)amino)-7-((1,3-dimethylpiperidin-3-yl)ethynyl)quinazolin-6-yl)acrylamide] showed an IC50 (EGFR wt) of over 0.5 µM, an IC50 (EGFR V3) of at most 0.05 µM and an IC50 (HER2 S310F) of 0.1 to 0.5 µM. It also gave an IC50 (HER2 YVMA) of over 0.5 µM.
Work on `C=CC(=O)Nc1cc2c(Nc3cccc(Cl)c3F)ncnc2cc1C#CC1(C)CCN(CC(F)(F)F)C1` (centres unmarked) [Compound 68, N-(4-((3-chloro-2-fluorophenyl)amino)-7-((3-methyl-1-(2,2,2-trifluoroethyl)-pyrrolidin-3-yl)ethynyl)quinazolin-6-yl)acrylamide] yielded an IC50 (EGFR wt) of over 0.5 µM, an IC50 (EGFR V3) of 0.1 to 0.5 µM and an IC50 (HER2 S310F) of over 0.5 µM. It also gave an IC50 (HER2 YVMA) of over 0.5 µM.
In the case of `C=CC(=O)Nc1cc2c(Nc3ccc(Cl)c(Cl)c3F)ncnc2cc1C#CC1(C)CCOC1` (centres unmarked) [Compound 63, N-(4-((3,4-dichloro-2-fluorophenyl)amino)-7-((3-methyltetrahydrofuran-3-yl)ethynyl)quinazolin-6-yl)acrylamide], the IC50 (EGFR wt) is reported as 0.1 to 0.5 µM, the IC50 (EGFR V3) is reported as at most 0.05 µM and the IC50 (HER2 S310F) is reported as 0.1 to 0.5 µM. The IC50 (HER2 YVMA) was over 0.5 µM.
With `C=CC(=O)Nc1cc2c(Nc3cccc(Cl)c3F)ncnc2cc1C#C[C@]12C[C@H]1CN(C)C2` [Compound 49, N-(4-((3-chloro-2-fluorophenyl)amino)-7-(((1S,5R)-3-methyl-3-azabicyclo[3.1.0]hexan-1-yl)ethynyl)quinazolin-6-yl)acrylamide] the IC50 (EGFR wt) was 0.05 to 0.1 µM, the IC50 (EGFR V3) was at most 0.05 µM and the IC50 (HER2 S310F) was 0.05 to 0.1 µM. It also gave an IC50 (HER2 YVMA) of 0.1 to 0.5 µM.
`C=CC(=O)Nc1cc2c(Nc3ccc(OCc4cccc(F)c4)c(Cl)c3)ncnc2cc1C#CC1(C)CCOC1` (centres unmarked) [Compound 61, N-(4-((3-chloro-4-((3-fluorobenzyl)oxy)-phenyl)amino)-7-((3-methyltetrahydrofuran-3-yl)ethynyl)quinazolin-6-yl)acrylamide] was tested, and the IC50 (EGFR wt) was over 0.5 µM, the IC50 (EGFR V3) was 0.1 to 0.5 µM and the IC50 (HER2 S310F) was 0.05 to 0.1 µM. The IC50 (HER2 YVMA) was 0.1 to 0.5 µM.
For `C=C(CO)C(=O)Nc1cc2c(Nc3cccc(Cl)c3F)ncnc2cc1C#C[C@@]12C[C@@H]1CN(C)C2` [Compound 26, N-[4-(3-chloro-2-fluoro-anilino)-7-[2-[(1R,5S)-3-methyl-3-azabicyclo[3.1.0]hexan-1-yl]ethynyl]quinazolin-6-yl]-2-(hydroxymethyl)prop-2-enamide], the IC50 (EGFR wt) was 0.05 to 0.1 µM, the IC50 (EGFR V3) was at most 0.05 µM and the IC50 (HER2 S310F) was 0.05 to 0.1 µM. For the same molecule, the IC50 (HER2 YVMA) was 0.1 to 0.5 µM.
Molecule `C=CC(=O)Nc1cc2c(Nc3ccc(F)c(Cl)c3F)ncnc2cc1C#CC1(C)CCN(C)C1` (centres unmarked) [Compound 8, N-(4-((3-chloro-2,4-difluorophenyl)amino)-7-((1,3-dimethylpyrrolidin-3-yl)ethynyl)-quinazolin-6-yl)acrylamide] has an IC50 (EGFR wt) of at most 0.05 µM, an IC50 (EGFR V3) of at most 0.05 µM and an IC50 (HER2 S310F) of 0.05 to 0.1 µM. The IC50 (HER2 YVMA) was 0.1 to 0.5 µM.
